Reference: patent US12552792B2, “Solid forms of an FGFR inhibitor and processes for preparing the same” (Incyte Corporation, priority 2018, dated 2026)
≈ marks a conversion by molar mass, not a printed value. Like-named read-outs stand apart in the source and are kept apart here.

Assays:
Format in all cases: physicochemical
[1] = Solubility measurement of Form I in solvent systems (HPLC); settings: organic solvent or mixture, thermodynamic from solid
Description: Form I waw found to be completely soluble (>50 mg/mL) in many solvents including DMF (50° C.), DCM, chloroform, DMSO, and DCM/MeOH (9/1) at 25° C. and 50° C.

[2] = as above; settings: for solubility at 24 h: organic solvent or mixture, thermodynamic from solid, stirred 24 h, HPLC; for solubility (in words): 25° C.
[3] = Conversion of Form II to Form I in different solvents
Source text: The Form II was converted to Form I in acetonitrile, ethanol and IPA respectively as described in Table 13.

Molecule `CCN1C(=O)N(c2c(F)c(OC)cc(OC)c2F)Cc2cnc3[nH]c(CN4CCOCC4)cc3c21` [Form I] has a solubility at 24 h ([1]; 25 °C, solvent 1-Propanol, stirred 24 h, HPLC, read-out: Solubility at 25° C.) of 1160 µg/mL (≈ 2.38 mM), a solubility at 24 h ([1]; 25 °C, solvent DCM/MeOH (9/1), stirred 24 h, HPLC, read-out: Solubility at 25° C.) greater than 50000 µg/mL and a solubility at 24 h ([1]; 25 °C, solvent IPAc, stirred 24 h, HPLC, read-out: Solubility at 25° C.) of 880 µg/mL (≈ 1.81 mM). For the same molecule, the solubility at 24 h ([1]; 25 °C, solvent Toluene, stirred 24 h, HPLC, read-out: Solubility at 25° C.) was 450 µg/mL (≈ 0.923 mM), the solubility at 24 h ([1]; 50 °C, solvent 1-Propanol, stirred 24 h, HPLC, read-out: Solubility at 50° C.) was 2500 µg/mL (≈ 5.13 mM) and the solubility at 24 h ([1]; 50 °C, solvent Chloroform, stirred 24 h, HPLC, read-out: Solubility at 50° C.) was greater than 50000 µg/mL. The solubility at 24 h ([1]; 50 °C, solvent Dichloromethane, stirred 24 h, HPLC, read-out: Solubility at 50° C.) was greater than 50000 µg/mL, the solubility at 24 h ([1]; 50 °C, solvent EtOAc, stirred 24 h, HPLC, read-out: Solubility at 50° C.) was 2260 µg/mL (≈ 4.64 mM) and the solubility at 24 h ([1]; 50 °C, solvent MeCN, stirred 24 h, HPLC, read-out: Solubility at 50° C.) was 8390 µg/mL (≈ 17.2 mM). The solubility at 24 h ([1]; 50 °C, solvent Methanol, stirred 24 h, HPLC, read-out: Solubility at 50° C.) was 2050 µg/mL (≈ 4.21 mM), the solubility at 24 h ([1]; DMF (50° C.), DCM, chloroform, DMSO, DCM/MeOH (9/1) at 25° C. and 50° C., read-out: completely soluble) was greater than 50000 µg/mL and the solubility ([1]; DMSO, 25° C., slurry obtained after stirring the clear solution of 60 mg Form I in 1 mL DMSO, read-out: solubility of the saturated solution) was 6130 µg/mL (≈ 12.6 mM). The solubility at 24 h ([2]; 25 °C, solvent 2-Methoxyethanol, read-out: Solubility at 25° C.) was 15300 µg/mL (≈ 31.3 mM), the solubility at 24 h ([2]; 25 °C, solvent Chloroform, read-out: Solubility at 25° C.) was greater than 50000 µg/mL and the solubility at 24 h ([2]; 25 °C, solvent DMF, read-out: Solubility at 25° C.) was 42000 µg/mL (≈ 86.1 mM). The solubility at 24 h ([2]; 25 °C, solvent DMSO, read-out: Solubility at 25° C.) was greater than 50000 µg/mL, the solubility at 24 h ([2]; 25 °C, solvent EtOH, read-out: Solubility at 25° C.) was 970 µg/mL (≈ 1.99 mM) and the solubility at 24 h ([2]; 25 °C, solvent IPA/water (4/1), read-out: Solubility at 25° C.) was 5350 µg/mL (≈ 11 mM). It also gave a solubility at 24 h ([2]; 25 °C, solvent IPA, read-out: Solubility at 25° C.) of 560 µg/mL (≈ 1.15 mM), a solubility at 24 h ([2]; 25 °C, solvent Isobutyl acetate, read-out: Solubility at 25° C.) of 460 µg/mL (≈ 0.944 mM) and a solubility at 24 h ([2]; 25 °C, solvent MEK, read-out: Solubility at 25° C.) of 1200 µg/mL (≈ 2.46 mM). For the same molecule, the solubility at 24 h ([2]; 25 °C, solvent MeCN, read-out: Solubility at 25° C.) was 5390 µg/mL (≈ 11.1 mM), the solubility at 24 h ([2]; 25 °C, solvent THF, read-out: Solubility at 25° C.) was 4110 µg/mL (≈ 8.43 mM) and the solubility at 24 h ([2]; 25 °C, solvent n-BuOH, read-out: Solubility at 25° C.) was 820 µg/mL (≈ 1.68 mM). The solubility at 24 h ([2]; 50 °C, solvent 2-Methoxyethanol, read-out: Solubility at 50° C.) was 20500 µg/mL (≈ 42 mM), the solubility at 24 h ([2]; 50 °C, solvent Acetone, read-out: Solubility at 50° C.) was 6670 µg/mL (≈ 13.7 mM) and the solubility at 24 h ([2]; 50 °C, solvent DCM/MeOH (9/1), read-out: Solubility at 50° C.) was greater than 50000 µg/mL. It also gave a solubility at 24 h ([2]; 50 °C, solvent DMF, read-out: Solubility at 50° C.) greater than 50000 µg/mL, a solubility at 24 h ([2]; 50 °C, solvent DMSO, read-out: Solubility at 50° C.) greater than 50000 µg/mL and a solubility at 24 h ([2]; 50 °C, solvent EtOH, read-out: Solubility at 50° C.) of 2730 µg/mL (≈ 5.6 mM). The solubility at 24 h ([2]; 50 °C, solvent Ethyl formate, read-out: Solubility at 50° C.) was 15300 µg/mL (≈ 31.4 mM), the solubility at 24 h ([2]; 50 °C, solvent IPA/water (4/1), read-out: Solubility at 50° C.) was 8770 µg/mL (≈ 18 mM) and the solubility at 24 h ([2]; 50 °C, solvent IPA, read-out: Solubility at 50° C.) was 1370 µg/mL (≈ 2.81 mM). For the same molecule, the solubility at 24 h ([2]; 50 °C, solvent IPAc, read-out: Solubility at 50° C.) was 1330 µg/mL (≈ 2.73 mM), the solubility at 24 h ([2]; 50 °C, solvent Isobutyl acetate, read-out: Solubility at 50° C.) was 580 µg/mL (≈ 1.19 mM) and the solubility at 24 h ([2]; 50 °C, solvent MEK, read-out: Solubility at 50° C.) was 3220 µg/mL (≈ 6.61 mM). The solubility at 24 h ([2]; 50 °C, solvent MIBK, read-out: Solubility at 50° C.) was 1120 µg/mL (≈ 2.3 mM), the solubility at 24 h ([2]; 50 °C, solvent MTBE, read-out: Solubility at 50° C.) was 190 µg/mL (≈ 0.39 mM) and the solubility at 24 h ([2]; 50 °C, solvent Toluene, read-out: Solubility at 50° C.) was 820 µg/mL (≈ 1.68 mM). The solubility at 24 h ([2]; 50 °C, solvent n-BuOH, read-out: Solubility at 50° C.) was 1650 µg/mL (≈ 3.38 mM), the “solubility (in words)” value ([2]; MTBE, toluene, IPAc, methanol, and IPA) was “sparingly soluble” and the “solubility (in words)” value ([2]; water, heptane and hexane) was “almost insoluble”.
`CCN1C(=O)N(c2c(F)c(OC)cc(OC)c2F)Cc2cnc3[nH]c(CN4CCOCC4)cc3c21` [Form VI] showed a solubility at 24 h ([2]; 25 °C, solvent Methanol, read-out: Solubility at 25° C.) of 640 µg/mL (≈ 1.31 mM).
`CCN1C(=O)N(c2c(F)c(OC)cc(OC)c2F)Cc2cnc3[nH]c(CN4CCOCC4)cc3c21` [Form IX] gave a solubility at 24 h ([1]; 25 °C, solvent MTBE, stirred 24 h, HPLC, read-out: Solubility at 25° C.) of 50 µg/mL (≈ 0.103 mM).
With `CCN1C(=O)N(c2c(F)c(OC)cc(OC)c2F)Cc2cnc3[nH]c(CN4CCOCC4)cc3c21` [Form II] the “Conversion result (solid form)” value ([3]; 18 mg Form II in EtOH (0.7 mL)) was “Form I”, the “Conversion result (solid form)” value ([3]; 18 mg Form II in IPA (0.7 mL)) was “Form I” and the “Conversion result (solid form)” value ([3]; 18 mg Form II in MeCN (0.7 mL)) was “Form I”. It also gave a solubility at 24 h ([2]; 25 °C, solvent Dichloromethane, read-out: Solubility at 25° C.) greater than 50000 µg/mL.
`CCN1C(=O)N(c2c(F)c(OC)cc(OC)c2F)Cc2cnc3[nH]c(CN4CCOCC4)cc3c21` [Form X] showed a solubility at 24 h ([2]; 25 °C, solvent EtOAc, read-out: Solubility at 25° C.) of 700 µg/mL (≈ 1.44 mM).
`CCN1C(=O)N(c2c(F)c(OC)cc(OC)c2F)Cc2cnc3[nH]c(CN4CCOCC4)cc3c21` [Form VII] gave a solubility at 24 h ([1]; 25 °C, solvent MIBK, stirred 24 h, HPLC, read-out: Solubility at 25° C.) of 430 µg/mL (≈ 0.882 mM).
`CCN1C(=O)N(c2c(F)c(OC)cc(OC)c2F)Cc2cnc3[nH]c(CN4CCOCC4)cc3c21` [Form XI] gave a solubility at 24 h ([1]; 25 °C, solvent Ethyl formate, stirred 24 h, HPLC, read-out: Solubility at 25° C.) of 4160 µg/mL (≈ 8.53 mM).
In the case of `CCN1C(=O)N(c2c(F)c(OC)cc(OC)c2F)Cc2cnc3[nH]c(CN4CCOCC4)cc3c21` [Form III], the solubility at 24 h ([1]; 50 °C, solvent 1,4-Dioxane, stirred 24 h, HPLC, read-out: Solubility at 50° C.) is reported as 5690 µg/mL (≈ 11.7 mM) and the solubility at 24 h ([2]; 25 °C, solvent 1,4-Dioxane, read-out: Solubility at 25° C.) is reported as 2230 µg/mL (≈ 4.57 mM).
In the case of `CCN1C(=O)N(c2c(F)c(OC)cc(OC)c2F)Cc2cnc3[nH]c(CN4CCOCC4)cc3c21` [Form VIII], the solubility at 24 h ([1]; 25 °C, solvent Acetone, stirred 24 h, HPLC, read-out: Solubility at 25° C.) is reported as 2680 µg/mL (≈ 5.5 mM).
`CCN1C(=O)N(c2c(F)c(OC)cc(OC)c2F)Cc2cnc3[nH]c(CN4CCOCC4)cc3c21` [Form XIII] showed a solubility at 24 h ([2]; 50 °C, solvent THF, read-out: Solubility at 50° C.) of 10000 µg/mL (≈ 20.6 mM).
